Experimental findings from patent publication US7045606B2, “Bifunctional chelating agent for actinium” (European Community, priority 2001, dated 2006) are described below.

Each structure is given as a SMILES string.

This series in a line: complexation properties of chelating agents with 225Ac. The format is physicochemical. The following applies: compared with the non-functionalised chelating agents EDTA, DTPA, DOTA, PEPA, HEHA, HOHEC and EDTMP. The protocol:
Different non-functionalised chelating agents (commercially available or readily synthesised in the laboratory) bearing aminocarboxylate groups (EDTA, DTPA, DOTA, PEPA, HEHA and HOHEC) or aminophosphonate groups (EDTMP) were tested for their complexation properties with ^225Ac. […] Polyaza polycarboxylic macrocycles are known to form thermodynamically stable complexes with large metal ions such as actinides and lanthanides.

Take `O=C(O)CN1CCN(CC(=O)O)CCN(CC(=O)O)CCN(CC(=O)O)CCN(CC(=O)O)CCN(CC(=O)O)CCN(CC(=O)O)CCN(CC(=O)O)CC1` [HOTEC, 1,4,7,10,13, 16,19,22-octacarboxylmethyl-1,4,7,10,13,16,19,22-octaazacyclotetracosane]: the “complexation properties with ^225Ac” value is recorded as “best candidate”.
